# Source: patent publication US20230104487A1, “11-(4-CHLOROPHENYL)-4-(2,3-DIHYDRO-1H-INDOLE-1-CARBONYL)-3,11-DIMETHYL-5,10,DIOXATRICYCLO[7.4.0.0,2,6,]TRIDECA-1,3,6,8-TETRAEN-13-ONE AND DERIVATIVES AS DESTABILIZER OF CRY1 FOR THE TREATMENT OF CIRCADIAN RHYTHM ASSOCIATED DISEASES AND DISORDERS” (KOC UNIVERSITESI, priority 2019, published 2023)
# Experiments:
# CRY2 = biological target: T1, CRY2 (Homo sapiens, UniProt Q49AN0); test: Protein immunoblot, unsynchronized U2-OS cells, CRY2; format: cell-based; conditions: Western blot
# T1 construct: To evaluate the effect of FORMULA I on the endogenous protein and mRNA level of clock genes; endogenous in cells; host or cells: U2-OS
# T1 sequence (Q49AN0 1-593): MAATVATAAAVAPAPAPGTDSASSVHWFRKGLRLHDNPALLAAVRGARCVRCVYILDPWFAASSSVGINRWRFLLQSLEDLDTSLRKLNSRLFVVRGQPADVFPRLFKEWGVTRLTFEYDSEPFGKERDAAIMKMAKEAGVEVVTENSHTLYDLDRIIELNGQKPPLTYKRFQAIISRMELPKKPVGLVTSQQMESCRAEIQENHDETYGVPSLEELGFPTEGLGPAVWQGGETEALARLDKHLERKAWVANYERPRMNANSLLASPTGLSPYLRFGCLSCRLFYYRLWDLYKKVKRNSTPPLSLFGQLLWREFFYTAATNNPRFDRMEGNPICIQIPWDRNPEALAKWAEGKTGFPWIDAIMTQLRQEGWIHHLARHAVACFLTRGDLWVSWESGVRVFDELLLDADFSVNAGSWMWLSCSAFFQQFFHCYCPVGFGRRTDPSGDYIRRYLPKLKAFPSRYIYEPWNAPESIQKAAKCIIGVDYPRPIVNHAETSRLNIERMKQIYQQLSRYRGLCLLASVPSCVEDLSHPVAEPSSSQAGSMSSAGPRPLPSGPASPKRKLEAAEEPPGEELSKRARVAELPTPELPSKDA
# Method: Cells were lysed in RIPA buffer (50 mM Tris, 150 mM NaCl, 1% Triton-X, 0.1% SDS) with fresh Protease inhibitor cocktail (PIC). After centrifugation at 13000 rpm for 15 minutes at 4° C., supernatant was used to determine the protein amount using Pierce Protein Assay (Thermo Scientific) according to the manufacturer's instruction. Mice liver samples were homogenized and lysed with Dounce homogenizer and RIPA buffer. After homogenization samples were incubated 10 minutes on ice. After centrifugation 13000 rpm 15 minutes at 4° C. supernatant was used for the whole cell lysate. Subcellular fractionation of liver samples: Liver samples were homogenized with cytosolic lysis buffer (10 mM HEPES pH 7.9, 10 mM KCl, 0.1 mM EDTA, 0.05% NP40, proteasome inhibitor) by pipetting 40 times with a cut tip. Then samples were incubated 10 minutes on ice and centrifuged for 3 minutes at 3000 rpm at 4° C. Supernatant was saved in a new tube, and pellet was processed for the nuclear fraction. Supernatant was centrifuged at 13000 rpm for 3 minutes at 4° C. where new supernatant saved as the cytosolic fraction. […] ECL buffer system (Advansta WesternBright) was used to visualize HRP chemi-luminescence via BioRad ChemiDoc Touch visualizer.
# C57BL/6J mice = test: Repeated dose toxicity study, 14-day subacute toxicity; format: in vivo; conditions: 60 mg/kg i.p. for 14 days
# Method: According to the results of the 5-day maximum tolerated dose determination study, FORMULA I dose was determined as 60 mg/kg for the next 14-day subacute toxicity study. In this study, C57BL/6J mice (n=10) were treated with 60 mg/kg dose of FORMULA I intraperitoneally for 14 days. Control mice (n=5) were only treated with vehicle. Following this, aforementioned procedure (5-day maximum tolerated dose determination study) has been conducted in the same way.
structure (smiles),measurement,setting,value
"Cc1c(C(=O)N2CCc3ccccc32)oc2ccc3c(c12)C(=O)CC(C)(c1ccc(Cl)cc1)O3 (stereo not drawn) [FORMULA I, 11-(4-chlorophenyl)-4-(2,3-dihydro-1H-indole-1-carbonyl)-3,11-dimethyl-5,10,dioxatricyclo[7.4.0.0,2,6,]trideca-1,3,6,8-tetraen-13-one]",level of CRY2,CRY2,CRY2 levels were comparable
same,body temperature (mild hypothermia),C57BL/6J mice; during injections,33.7-35.4 °C
same,highest mean body weight loss,C57BL/6J mice; first day following administration,3.7%
